What was measured:
[1] = molecular target: T1, human bradykinin 1 receptor (B1R) (Homo sapiens, UniProt P46663); assay: Functional investigation on the human bradykinin 1 receptor (B1R), Ca2+ FLIPR assay in CHO K1 hB1R cells; type: cell-based; conditions: test substance 10 μM, Ca2+ FLIPR, CHO K1 hB1R cells; for inhibition at 10 µM: CHO-K1, B1R antagonism human, read-out: B1R Ant. h [10 μM] % Inhibition
T1 construct: expressed in transfected cells; host or cells: CHO K1 cells
T1 sequence (P46663 1-353): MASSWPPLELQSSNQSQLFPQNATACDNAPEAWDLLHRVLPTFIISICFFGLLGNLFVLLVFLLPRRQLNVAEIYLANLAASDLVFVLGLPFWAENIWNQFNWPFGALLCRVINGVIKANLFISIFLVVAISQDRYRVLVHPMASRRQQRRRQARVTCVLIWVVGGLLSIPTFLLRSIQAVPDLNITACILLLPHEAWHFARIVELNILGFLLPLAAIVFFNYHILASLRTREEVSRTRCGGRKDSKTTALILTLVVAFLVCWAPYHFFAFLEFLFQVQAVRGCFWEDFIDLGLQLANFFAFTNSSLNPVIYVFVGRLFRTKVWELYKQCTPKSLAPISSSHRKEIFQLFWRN
Outline: (§1)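 Fluo-4 Ca2+ readout, peak fluorescence. Stable CHO K1 transfectants; compound pre-incubated 10-20 min, then EC80 agonist—Lys-Des-Arg9-BK for hB1R, Des-Arg9-BK for rB1R. % inhibition vs maximal inhibition; IC50 from multiple concentrations, duplicate/triplicate, ≥2 independent runs.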

[2] = molecular target: T2, bradykinin 1 receptor (B1R) of the rat (Rattus norvegicus, UniProt P97583); assay: Functional investigation on the rat bradykinin 1 receptor (B1R), Ca2+ FLIPR assay in CHO K1 rB1R cells; type: cell-based; conditions: test substance 10 μM, Ca2+ FLIPR, CHO K1 rB1R cells; for inhibition at 10 µM: CHO-K1, B1R antagonism rat, read-out: B1R Ant. r [10 μM] % Inhibition
T2 construct: expressed in transfected cells; host or cells: CHO K1 cells
T2 sequence (P97583 1-337): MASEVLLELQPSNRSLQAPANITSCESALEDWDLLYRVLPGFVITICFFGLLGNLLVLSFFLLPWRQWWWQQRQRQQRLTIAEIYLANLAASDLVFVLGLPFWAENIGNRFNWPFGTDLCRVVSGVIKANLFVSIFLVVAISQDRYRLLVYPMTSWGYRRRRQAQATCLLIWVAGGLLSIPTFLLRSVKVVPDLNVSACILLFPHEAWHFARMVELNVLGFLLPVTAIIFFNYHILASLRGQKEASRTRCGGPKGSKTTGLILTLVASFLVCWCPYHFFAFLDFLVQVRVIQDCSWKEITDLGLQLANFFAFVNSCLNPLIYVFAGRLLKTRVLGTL
Outline: as §1

Row | SMILES | B1R Ant. h [10 μM] % Inhibition ([1]; B1R antagonism human) [%] | B1R Ant. r [10 μM] % Inhibition ([2]; B1R antagonism rat) [%] | inhibition at 10 µM [1] [%] | inhibition at 10 µM [2] [%]
1 | COc1cc(C)c(S(=O)(=O)N(C)CCOCC(=O)NC2CCC(C(c3ccccc3)N(C)C)CC2)c(C)c1C (stereo not drawn) [Example 80, N-(4-((dimethylamino) (phenyl)methyl)cyclohexyl)-2-(2-(4-methoxy-N,2,3,6-tetramethylphenylsulfonamido)ethoxy)acetamide] | 98 | 6 |  | 
2 | CN(C)C(c1ccccc1)C1CCC(CNC(=O)COC2CCN(S(=O)(=O)c3ccc(Cl)cc3)C2)CC1 (stereo not drawn) [Example 81, 2-(1-(4-chlorophenylsulfonyl)pyrrolidin-3-yloxy)-N-((4-((dimethylamino)(phenyl)methyl)cyclohexyl)methyl)acetamide] |  |  | -10 | 5
3 | Cc1ccc(S(=O)(=O)N(C)CCOCC(=O)NCCC2CCC(C(c3cccs3)N(C)C)CC2)cc1 (stereo not drawn) [Example 82, N-(2-(4-((dimethylamino)(thiophen-2-yl)methyl)cyclohexyl)ethyl)-2-(2-(N,4-dimethylphenylsulfonamido)ethoxy)acetamide] |  |  | -2 | -1
4 | CN(C)C(c1cccs1)C1CCC(NC(=O)COCCN(C)S(=O)(=O)c2ccc(Cl)cc2)CC1 (stereo not drawn) [Example 83, 2-(2-(4-chloro-N-methylphenylsulfonamido)ethoxy)-N-(4-((dimethylamino) (thiophen-2-yl)methyl)cyclohexyl)acetamide] |  |  | 7 | 11
5 | COc1cc(C)c(S(=O)(=O)N(C)CCOCC(=O)NCCC2CCC(C(c3cccs3)N(C)C)CC2)c(C)c1 (stereo not drawn) [Example 84, N-(2-(4-((dimethylamino)(thiophen-2-yl)methyl)cyclohexyl)ethyl)-2-(2-(4-methoxy-N,2,6-trimethylphenylsulfonamido)ethoxy)acetamide] |  |  | 104 | 103
6 | CN(C)C(c1cccs1)C1CCC(CCNC(=O)COCCN(C)S(=O)(=O)c2ccc(F)cc2)CC1 (stereo not drawn) [Example 85, N-(2-(4-((dimethylamino)(thiophen-2-yl)methyl)cyclohexyl)ethyl)-2-(2-(4-fluoro-N-methylphenylsulfonamido)ethoxy)acetamide] |  |  | 7 | 12
7 | COc1cc(C)c(S(=O)(=O)N2CCC(OCC(=O)NCC3CCC(C(c4cccs4)N(C)C)CC3)C2)c(C)c1 (stereo not drawn) [Example 86, N-((4-((dimethylamino)(thiophen-2-yl)methyl)cyclohexyl)methyl)-2-(1-(4-methoxy-2,6-dimethylphenylsulfonyl)pyrrolidin-3-yloxy)acetamide] |  |  | 98 | 100
8 | CN(C)C(c1cccc(F)c1)C1CCC(CNC(=O)COCC2CCCCN2S(=O)(=O)c2ccc(Cl)c(Cl)c2)CC1 (stereo not drawn) [Example 87, 2-((1-(3,4-dichlorophenylsulfonyl)piperidin-2-yl)methoxy)-N-((4-((dimethylamino)(3-fluorophenyl)methyl)cyclohexyl)methyl)acetamide] |  |  | 57 | 9
9 | COc1ccc(S(=O)(=O)N2CCCCC2COCC(=O)NCC2CCC(C(c3ccccc3)N(C)C)CC2)cc1 (stereo not drawn) [Example 88, N-((4-((dimethylamino)(phenyl)methyl)cyclohexyl)methyl)-2-((1-(4-methoxyphenylsulfonyl)piperidin-2-yl)methoxy)acetamide] |  |  | 80 | 68
10 | COc1ccc(S(=O)(=O)N2CCCCC2CCOCC(=O)NCC2CCC(C(c3ccccc3)N(C)C)CC2)cc1 (stereo not drawn) [Example 89, N-((4-((dimethylamino)(phenyl)methyl)cyclohexyl)methyl)-2-(2-(1-(4-methoxyphenylsulfonyl)piperidin-2-yl)ethoxy)acetamide] |  |  | 42 | 50
11 | COc1ccc(S(=O)(=O)N2CCCCC2CCOCC(=O)NCC2CCC(C(c3cccs3)N(C)C)CC2)cc1 (stereo not drawn) [Example 90, N-((4-((dimethylamino)(thiophen-2-yl)methyl)cyclohexyl)methyl)-2-(2-(1-(4-methoxyphenylsulfonyl)piperidin-2-yl)ethoxy)acetamide] |  |  | 49 | 37
12 | CN(C)C(c1ccccc1)C1CCC(CNC(=O)COCCN(C)S(=O)(=O)c2cccc(C(F)(F)F)c2)CC1 (stereo not drawn) [Example 91, N-((4-((dimethylamino)(phenyl)methyl)cyclohexyl)methyl)-2-(2-(N-methyl-3-(trifluoromethyl)phenylsulfonamido)ethoxy)acetamide] |  |  | 42 | 34
13 | CN(C)C(c1cccs1)C1CCC(CNC(=O)COCCN(C)S(=O)(=O)c2cccc(C(F)(F)F)c2)CC1 (stereo not drawn) [Example 92, N-((4-((dimethylamino)(thiophen-2-yl)methyl)cyclohexyl)methyl)-2-(2-(N-methyl-3-(trifluoromethyl)phenylsulfonamido)ethoxy)acetamide] |  |  | 31 | 1
14 | CN(C)C(c1cccs1)C1CCC(CNC(=O)COCCN(C)S(=O)(=O)c2ccc(OC(F)(F)F)cc2)CC1 (stereo not drawn) [Example 93, N-((4-((dimethylamino)(thiophen-2-yl)methyl)cyclohexyl)methyl)-2-(2-(N-methyl-4-(trifluoromethoxy)phenylsulfonamido)ethoxy)acetamide] |  |  | -2 | 6
15 | COc1ccc(S(=O)(=O)N2CCC(OCC(=O)NCCC3CCC(C(c4cccs4)N(C)C)CC3)C2)cc1OC (stereo not drawn) [Example 94, 2-(1-(3,4-dimethoxyphenylsulfonyl)pyrrolidin-3-yloxy)-N-(2-(4-((dimethylamino)(thiophen-2-yl)methyl)cyclohexyl)ethyl)acetamide] |  |  | -5 | 21

Source: patent US8106055B2, “Substituted amide compounds” (Gruenenthal GmbH, priority 2007, dated 2012)
